Results as given in patent publication US20250340603A1, “A METHOD FOR MODULATING PLANT ADAPTATION TRAITS” (CRAG (Centre de Recerca en Agrigenòmica), priority 2021, published 2025).
Each block holds one molecule with its values, some of them ahead of it.

Tests used:
[1] = tested on: WT (Col-0) seedlings; test: BRZ220 treatment, hypocotyl elongation growth; assay type: in vivo, Arabidopsis thaliana; conditions: 1 μM BRZ220 in media, WT plants, 22° C. or 28° C., 6 d, LD
Protocol: Pharmacological treatments were performed in plates adding hormones/drugs in the media. Chemicals used include; 1 μM BRZ220 (Gift from T. Nakano, RIKEN, Japan) or 50 μM Bikinin (200980, Sigma-Aldrich) for 6-d in control (long days, 22° C.) or high temperature (long days, 28° C.) conditions. Hypocotyl length were measured using the Image J software (v.1.48v) (https-/imagej.nih.gov/ij/). For hypocotyl elongation analysis, seedlings were grown in horizontally placed 0.5MS− media plates in controlled growth conditions (Aralab 600; long days 16:8h day/night cycle 60% relative humidity and 50-70 μmol m^−2 s^−1 of cool-white fluorescent light) at 22° C. or 28° C. temperature for 5-7d. Plates were photographed and hypocotyl length were measured using the ImageJ software (v.1.48v) (https:/imagej.nih.gov/ij/). For root growth analysis, seedlings were grown in vertically placed 0.5MS− media plates in controlled growth conditions (Aralab 600; long days 16:8h day/night cycle; 22° C.). MyROOT software (Betegón-Putzé et al., 2019) was used to compare root growth of plants. Lateral roots were manually counted under a stereozoom microscope in 9-d-old seedlings.

[2] = target: T1, BRL3 (BRASSINOSTEROID RECEPTOR LIKE 3), full length, fused to a half of YFP (BiFC construct) (Arabidopsis thaliana, UniProt Q9LJF3 24-1164); test: BiFC (split YFP) in Nicotiana benthamiana leaves, confocal microscopy
T1 construct: also called BRL3 receptor; AT3G13380; not shown: half of YFP (YN or YC, both directions tested) from vectors pGTQL1211-YN / pGTQL1221-YC
T1 sequence: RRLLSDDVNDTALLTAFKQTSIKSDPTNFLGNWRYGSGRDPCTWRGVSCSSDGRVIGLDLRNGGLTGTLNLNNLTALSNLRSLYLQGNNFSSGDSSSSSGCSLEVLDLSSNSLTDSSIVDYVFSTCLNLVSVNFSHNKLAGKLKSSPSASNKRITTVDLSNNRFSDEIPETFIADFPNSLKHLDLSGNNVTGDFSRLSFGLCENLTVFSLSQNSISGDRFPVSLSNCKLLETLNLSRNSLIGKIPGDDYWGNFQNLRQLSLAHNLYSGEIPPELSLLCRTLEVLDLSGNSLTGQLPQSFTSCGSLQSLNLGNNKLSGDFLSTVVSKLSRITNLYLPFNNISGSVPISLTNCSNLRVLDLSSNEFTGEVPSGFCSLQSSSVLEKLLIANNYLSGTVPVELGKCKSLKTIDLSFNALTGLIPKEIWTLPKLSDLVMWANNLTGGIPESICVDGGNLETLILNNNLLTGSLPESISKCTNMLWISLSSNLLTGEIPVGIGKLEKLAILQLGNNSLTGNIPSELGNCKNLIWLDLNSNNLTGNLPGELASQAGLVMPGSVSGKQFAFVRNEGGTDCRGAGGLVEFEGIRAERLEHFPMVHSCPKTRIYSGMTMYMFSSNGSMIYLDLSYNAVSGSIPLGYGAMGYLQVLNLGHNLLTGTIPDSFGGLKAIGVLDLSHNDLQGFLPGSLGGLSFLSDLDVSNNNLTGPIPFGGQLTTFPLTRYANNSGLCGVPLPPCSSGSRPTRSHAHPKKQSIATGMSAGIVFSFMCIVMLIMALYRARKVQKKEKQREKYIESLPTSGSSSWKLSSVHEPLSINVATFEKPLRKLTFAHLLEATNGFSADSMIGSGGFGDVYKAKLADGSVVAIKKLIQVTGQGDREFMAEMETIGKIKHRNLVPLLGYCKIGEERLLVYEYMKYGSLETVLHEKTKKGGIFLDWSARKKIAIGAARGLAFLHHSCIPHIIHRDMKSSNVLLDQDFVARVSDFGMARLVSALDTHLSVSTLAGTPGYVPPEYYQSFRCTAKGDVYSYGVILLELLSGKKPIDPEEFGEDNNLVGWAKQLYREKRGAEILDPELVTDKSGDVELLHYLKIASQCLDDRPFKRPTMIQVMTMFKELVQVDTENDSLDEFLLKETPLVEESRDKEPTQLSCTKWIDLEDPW

Molecule: CC(O)(c1ccccc1)C(Cc1ccc(Cl)cc1)n1cncn1 (centres unmarked) [BRZ220, Brassinazole]
hypocotyl size [1]: reduced hypocotyl size irrespective of the temperature

binding result [2]: no binding
B1: BKI1, BiFC negative control (other, UniProt Q9FMZ0 1-337, looked up)
chain: METNLQQVKNSSQTFSEKQNPKQEASPSPISSTCSSPSHDFSFTISLQPLSSSSKHISPTLRSPSKTTSSYQQTDPFAVDLSPADEIFFHGHLLPLHLLSHLPVSPRTSTGSYNDGFTLPVKDILPDQPTNNNNNTENAITNISTEAKDDNTEDKAEGEIRVKTKPIKSFSLFGLSKWRKGFESNEREQEQQQQKIKKPMSLDLSHAVKKYIRMLFQKRGNGTQFWNRRQTSSYSFSSSLMGPNGNSKTMINGSYNKRDLIRGRRGELFSAPASMRTSPTNSGHLRVSTAGLSSSSGSTSSSSSDSTMEELQAAIQAAIAHCKNSSAVDRDDKVKDS
notes: whole, on cells; not shown: the construct of this control is not described
